PubChem BioAssay AID720588 (Broad Institute, 2013)
The source made the active and inactive calls.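 Rule for the calls: active = fitted curve falls past a set limit of signal loss at no more than twice the top dose; inconclusive = flat fit between 30 and 70% signal loss, or poor fit; inactive = signal rise, flat within 30%, or crossing too high.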

Test: HEK293T cell cytotoxicity, dose response, cytotoxicity control, CellTiter-Glo luminescence, cherry-pick, set 3 (AID 720588)
Conditions: HEK293T viability, CellTiter-Glo ATP luminescence, 72 h; at 26 µM (top of the series)

Cc1[nH][nH]c(=O)c1C(c1c(C)[nH][nH]c1=O)c1cn(Cc2ccc(Cl)c(Cl)c2)c2ccccc12
activity change, negative = cytotoxicity: -16% (inactive)

C[C@@H]1CCCCO[C@H](CN(C)Cc2ccc(C(=O)Nc3ccccc3N)cc2)[C@@H](C)CN([C@@H](C)CO)C(=O)c2cc(NS(=O)(=O)c3ccc(Cl)cc3)ccc2O1
activity change, negative = cytotoxicity: -25.9% (inactive)

Cc1csc(NC(=O)CCc2c(C)nc3cc(-c4ccc(Cl)cc4)nn3c2C)n1
activity change, negative = cytotoxicity: -13.4% (inactive)

CCOC(=O)c1c(-c2ccc(C)cc2)csc1NC(=O)CCN1CCOCC1
activity change, negative = cytotoxicity: 5.98% (inactive)

COC(=O)C[C@@H]1CC[C@@H]2[C@@H](COc3ccc(NC(=O)Nc4cccc(C#N)c4)cc3C(=O)N2C)O1
activity change, negative = cytotoxicity: 16.9% (inactive)

CCOc1ccc(-c2cc(CCCC(=O)NCc3ccc(C)cc3)no2)cc1
activity change, negative = cytotoxicity: 8.45% (inactive)

CCn1c(C)cc(C(=O)CN2C(=O)c3ccccc3S2(=O)=O)c1C
activity change, negative = cytotoxicity: -4.24% (inactive)

O=C(O)c1ccc(N/N=C/c2cc(Br)cs2)cc1
activity change, negative = cytotoxicity: -9.61% (inactive)

Cc1occc1-c1n[nH]c(=S)n1C
activity change, negative = cytotoxicity: -10.6% (inactive)

COC(=O)C[C@@H]1CC[C@@H]2[C@H](COc3ccc(NC(=O)c4ccc(F)c(F)c4)cc3C(=O)N2C)O1
activity change, negative = cytotoxicity: 16.7% (inactive)

CC(=O)c1ccc(NC(=O)c2noc3c2CCC3)cc1
activity change, negative = cytotoxicity: -5.3% (inactive)

CCCCNC(=O)C(c1ccc(OCC(=O)OC)c(C(=O)OC)c1)N(CCOC)C(=O)CCCCCN1C(=O)NC(c2ccc(-c3ccccc3)cc2)C(C(=O)OCc2ccccc2)=C1C (stereo unspecified)
activity change, negative = cytotoxicity: 2.6% (inactive)

COc1ccccc1NS(=O)(=O)c1cc(NC(=O)c2cc3ccccc3oc2=O)ccc1C
activity change, negative = cytotoxicity: -6.46% (inactive)

COc1ccc(S(=O)(=O)N2CCCc3nc(-c4ccc(F)cc4)ccc32)cc1
activity change, negative = cytotoxicity: -5.94% (inactive)

CCCn1c(C)cc(C(=O)CN2C(=O)c3ccccc3S2(=O)=O)c1C
activity change, negative = cytotoxicity: 4.1% (inactive)

COc1ccc(C(=O)NCCNc2nc3cc(C)cc(C)c3cc2C#N)c(OC)c1
activity change, negative = cytotoxicity: -16.7% (inactive)

CCCn1nnc(NC(=S)NC(=O)C(C)(C)C)n1
activity change, negative = cytotoxicity: -9.98% (inactive)

CC(=NNc1ccc2ccccc2n1)c1ccccc1O
activity change, negative = cytotoxicity: -9.29% (inactive)

CCOc1ccc(OCc2ccc(C(=O)NN=Cc3ccc[nH]3)cc2)cc1
activity change, negative = cytotoxicity: -39.9% (inactive)

COc1ccccc1/C=C1\SC(=S)N(CCC(=O)Nc2cc(C)on2)C1=O
activity change, negative = cytotoxicity: 8.14% (inactive)

COc1ccccc1-c1cn(CC[C@H]2CC[C@@H](NC(=O)C3CCCC3)[C@@H](CO)O2)nn1
activity change, negative = cytotoxicity: 0.512% (inactive)

Cc1cc(Br)ccc1N=C1C(=O)Nc2ccccc21
activity change, negative = cytotoxicity: -16.9% (inactive)

C[C@H]1CCCCO[C@H](CN(C)Cc2ccc(C(F)(F)F)cc2)[C@@H](C)CN([C@@H](C)CO)C(=O)c2cc(NC(=O)Nc3ccccc3)ccc2O1
activity change, negative = cytotoxicity: 0.212% (inactive)

COc1cc(/C=N/NC(=O)c2csc3c2CCCC3)cc(OC)c1O
activity change, negative = cytotoxicity: 0.867% (inactive)

C(=C\c1ccc(C2[C@H]3CNC[C@@H]2N3Cc2ccccn2)cc1)/c1ccccc1 (stereo partly specified)
activity change, negative = cytotoxicity: 39.5% (inactive)

CCOc1cc2[nH]c(=S)n(Cc3ccc(C(=O)N4CCN(C)CC4)cc3)c(=O)c2cc1OCC
activity change, negative = cytotoxicity: -20.5% (inactive)

COc1cc2c(cc1NC(=O)CN(C)Cc1ccc(OC)c(OC)c1)oc1ccccc12
activity change, negative = cytotoxicity: -19.9% (inactive)

CC(C)(C)C(=O)Nc1ccc(N=Nc2ccccc2)cc1
activity change, negative = cytotoxicity: -5.33% (inactive)

O=C(O)c1ccc(N/N=C/c2c[nH]c3ccccc23)cc1
activity change, negative = cytotoxicity: 6.31% (inactive)

O=C1c2ccc3c4c(ccc(c24)C(=O)N1c1cccc(O)c1)C(=O)N(c1cccc(O)c1)C3=O
activity change, negative = cytotoxicity: 7.85% (inactive)

CN(C)c1ncnc2c1ccn2C1OC(CO)C(O)C1O (stereo unspecified)
activity change, negative = cytotoxicity: -37% (inactive)
